# Legend:
# [1] = tested on: donepezil-treated patients with moderate Alzheimer's disease; experiment: LADDER study post-hoc analysis: Activities of Daily Living (ADCS-ADL) by NPI apathy score; type: in vivo, human
# Description: Patients were randomly assigned (1:1) to double-blind treatment with idalopirdine or placebo. The same patient population as in Example 3 was analysed in a post-hoc analysis. For the post-hoc analysis apathy was considered present if the apathy score as measured by Neuropsychiatric Inventory (NPI) was 1 or higher. The statistical analysis predicted a significant interaction at a 5% significance level between apathy score and treatment effect of idalopirdine on Activities of Daily Living as measured by the ADCS-ADL score (Galasko et al; An inventory to assess activities of daily living for clinical trials in Alzheimer's Disease. Alzheimer Dis Assoc Disord. 1997;11(Suppl 2):22-32) (a positive score means an improvement): […]
# [2] = tested on: donepezil-treated patients with moderate Alzheimer's disease; experiment: LADDER study: cognition (ADAS-cog) in donepezil-treated patients, incl. post-hoc analysis by NPI apathy score; type: in vivo, human
# Description: The […] study that was conducted to assess the effect on cognitive performance of idalopirdine in donepezil-treated patients with moderate Alzheimer's disease. The […] study is registered with ClinicalTrials.gov, number NCT01019421 and is reported in Wilkinson D, et al. Safety and efficacy of idalopirdine, a 5-HT6 receptor antagonist, in patients with moderate Alzheimer's disease (LADDER): a randomised, double-blind, placebo-controlled phase 2 trial Lancet Neurol 2014; 13: 141-49. […] Patients were randomly assigned (1:1) to double-blind treatment with idalopirdine or placebo. The cognitive subscale of the 70-point, 11-item Alzheimer's Disease Assessment Scale (ADAS-cog) was rated at baseline and at weeks 4, 12, and 24. The ADAS-Cog scale is described in Rosen W G et al. A new scale for Alzheimer's disease. Am J Psychiatry 1984; 141: 1356-64. […] Subsequent to the analysis of the primary and secondary endpoints of the […] study as described in Example 2 above a post-hoc analysis was conducted. […] For the post-hoc analysis apathy was considered present if the apathy score as measured by Neuropsychiatric Inventory (NPI) was 1 or higher. The statistical analysis predicted a significant interaction at a 5% significance level between apathy score and treatment effect of idalopirdine on cognition as measured by the ADAS-Cog score (a negative score means less decline in cognitive skills and is thus desirable): […]
# h5-HT2A = h5-HT2A (Homo sapiens, UniProt P28223); conditions: cited from earlier work
# Sequence of h5-HT2A (P28223 whole entry): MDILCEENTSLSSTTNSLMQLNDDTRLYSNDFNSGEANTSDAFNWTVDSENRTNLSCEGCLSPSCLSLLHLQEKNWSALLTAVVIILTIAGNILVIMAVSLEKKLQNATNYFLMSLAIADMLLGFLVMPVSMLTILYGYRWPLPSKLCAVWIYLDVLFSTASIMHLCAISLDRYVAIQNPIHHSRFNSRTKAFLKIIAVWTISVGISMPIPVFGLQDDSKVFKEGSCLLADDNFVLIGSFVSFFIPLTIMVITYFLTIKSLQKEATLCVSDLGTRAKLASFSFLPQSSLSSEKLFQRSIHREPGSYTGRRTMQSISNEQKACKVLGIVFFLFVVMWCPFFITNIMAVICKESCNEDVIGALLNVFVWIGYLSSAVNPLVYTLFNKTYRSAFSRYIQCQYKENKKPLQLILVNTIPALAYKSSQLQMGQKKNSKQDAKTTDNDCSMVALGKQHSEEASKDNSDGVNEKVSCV
# h5-HT1E = h5-HT1E (Homo sapiens, UniProt P28566); conditions: cited from earlier work
# Sequence of h5-HT1E (P28566 whole entry): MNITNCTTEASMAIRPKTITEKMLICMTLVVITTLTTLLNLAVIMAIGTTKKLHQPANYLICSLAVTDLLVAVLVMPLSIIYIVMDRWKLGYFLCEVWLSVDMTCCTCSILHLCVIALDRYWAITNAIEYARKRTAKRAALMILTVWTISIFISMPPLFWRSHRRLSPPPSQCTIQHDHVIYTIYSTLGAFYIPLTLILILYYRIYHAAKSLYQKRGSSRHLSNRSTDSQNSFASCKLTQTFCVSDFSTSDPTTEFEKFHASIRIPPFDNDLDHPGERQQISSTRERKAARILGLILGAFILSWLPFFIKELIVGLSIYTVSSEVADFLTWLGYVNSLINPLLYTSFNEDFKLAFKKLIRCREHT
# h5-HT1F = target: T1, h5-HT1F (Homo sapiens, UniProt P30939); conditions: cited from earlier work
# T1 sequence (P30939 1-366): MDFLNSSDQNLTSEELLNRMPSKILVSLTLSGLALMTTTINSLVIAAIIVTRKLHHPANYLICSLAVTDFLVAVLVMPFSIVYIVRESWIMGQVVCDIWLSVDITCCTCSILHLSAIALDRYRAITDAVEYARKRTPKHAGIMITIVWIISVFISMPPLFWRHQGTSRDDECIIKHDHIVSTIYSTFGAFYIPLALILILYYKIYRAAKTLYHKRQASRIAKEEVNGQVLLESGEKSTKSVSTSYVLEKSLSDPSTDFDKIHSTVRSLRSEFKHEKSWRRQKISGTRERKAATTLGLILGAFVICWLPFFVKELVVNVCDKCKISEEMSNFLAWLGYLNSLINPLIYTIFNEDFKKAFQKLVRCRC
# h5-HT1A = target: T2, h5-HT1A (Homo sapiens, UniProt P08908); conditions: cited from earlier work
# T2 sequence (P08908 1-422): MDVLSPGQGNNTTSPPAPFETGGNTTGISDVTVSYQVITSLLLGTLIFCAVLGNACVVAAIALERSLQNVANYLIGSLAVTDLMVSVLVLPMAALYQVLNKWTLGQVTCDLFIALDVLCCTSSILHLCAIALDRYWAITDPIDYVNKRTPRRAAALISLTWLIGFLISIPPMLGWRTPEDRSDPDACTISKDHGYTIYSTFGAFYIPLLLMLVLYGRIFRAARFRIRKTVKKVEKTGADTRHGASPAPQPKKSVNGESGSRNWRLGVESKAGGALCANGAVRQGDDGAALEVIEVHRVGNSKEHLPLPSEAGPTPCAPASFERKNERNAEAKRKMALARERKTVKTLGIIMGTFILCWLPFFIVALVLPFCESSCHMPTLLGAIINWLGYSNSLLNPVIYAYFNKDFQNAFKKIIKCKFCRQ
# h5-HT2B = h5-HT2B (Homo sapiens, UniProt P41595); conditions: cited from earlier work
# Sequence of h5-HT2B (P41595 whole entry): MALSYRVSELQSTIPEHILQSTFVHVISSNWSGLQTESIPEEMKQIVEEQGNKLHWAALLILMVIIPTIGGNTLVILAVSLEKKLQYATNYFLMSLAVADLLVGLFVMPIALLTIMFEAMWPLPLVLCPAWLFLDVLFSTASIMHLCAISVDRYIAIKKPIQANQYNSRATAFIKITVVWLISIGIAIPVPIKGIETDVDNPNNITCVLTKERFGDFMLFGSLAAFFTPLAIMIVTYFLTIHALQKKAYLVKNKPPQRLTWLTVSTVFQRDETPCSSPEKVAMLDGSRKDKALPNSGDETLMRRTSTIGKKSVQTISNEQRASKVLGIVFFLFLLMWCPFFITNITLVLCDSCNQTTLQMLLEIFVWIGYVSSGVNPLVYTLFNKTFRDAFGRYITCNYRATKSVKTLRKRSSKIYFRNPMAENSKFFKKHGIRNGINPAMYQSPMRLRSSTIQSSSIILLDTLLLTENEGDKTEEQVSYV
# h5-HT1D = h5-HT1D (Homo sapiens, UniProt P28221); conditions: cited from earlier work
# Sequence of h5-HT1D (P28221 whole entry): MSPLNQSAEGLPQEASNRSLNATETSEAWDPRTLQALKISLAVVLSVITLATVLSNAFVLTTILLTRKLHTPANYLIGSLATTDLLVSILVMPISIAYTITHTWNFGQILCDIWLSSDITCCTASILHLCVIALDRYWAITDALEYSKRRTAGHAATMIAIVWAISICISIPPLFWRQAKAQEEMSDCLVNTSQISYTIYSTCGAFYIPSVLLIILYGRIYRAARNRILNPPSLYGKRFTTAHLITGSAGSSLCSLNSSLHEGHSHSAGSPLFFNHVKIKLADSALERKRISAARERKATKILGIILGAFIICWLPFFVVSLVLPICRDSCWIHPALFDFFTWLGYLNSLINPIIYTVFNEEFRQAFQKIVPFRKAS
# h5-HT7 = h5-HT7 (Homo sapiens, UniProt P34969); conditions: cited from earlier work
# Sequence of h5-HT7 (P34969 whole entry): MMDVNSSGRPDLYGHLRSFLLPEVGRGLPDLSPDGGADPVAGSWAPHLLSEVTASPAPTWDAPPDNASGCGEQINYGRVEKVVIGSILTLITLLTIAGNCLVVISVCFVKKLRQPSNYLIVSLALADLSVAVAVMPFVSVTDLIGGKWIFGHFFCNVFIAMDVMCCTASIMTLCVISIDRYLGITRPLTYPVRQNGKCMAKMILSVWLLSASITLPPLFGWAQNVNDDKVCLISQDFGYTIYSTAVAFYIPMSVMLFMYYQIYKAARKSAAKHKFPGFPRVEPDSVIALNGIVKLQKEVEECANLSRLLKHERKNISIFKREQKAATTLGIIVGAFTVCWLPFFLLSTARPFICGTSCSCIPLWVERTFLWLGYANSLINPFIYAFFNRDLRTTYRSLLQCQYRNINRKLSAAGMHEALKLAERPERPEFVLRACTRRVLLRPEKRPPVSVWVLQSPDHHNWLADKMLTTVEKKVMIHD
# h5-HT1B = h5-HT1B (Homo sapiens, UniProt P28222); conditions: cited from earlier work
# Sequence of h5-HT1B (P28222 whole entry): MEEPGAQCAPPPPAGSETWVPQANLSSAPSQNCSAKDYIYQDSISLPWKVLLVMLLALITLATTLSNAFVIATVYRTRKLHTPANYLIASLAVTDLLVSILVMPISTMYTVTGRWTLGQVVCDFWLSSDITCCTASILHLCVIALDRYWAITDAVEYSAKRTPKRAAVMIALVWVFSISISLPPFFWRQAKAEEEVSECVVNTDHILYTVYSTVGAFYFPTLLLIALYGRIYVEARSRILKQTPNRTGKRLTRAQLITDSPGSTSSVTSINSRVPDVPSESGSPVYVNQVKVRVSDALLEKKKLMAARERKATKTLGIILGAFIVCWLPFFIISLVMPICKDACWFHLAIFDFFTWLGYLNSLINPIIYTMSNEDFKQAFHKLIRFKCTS
# [3] = tested on: donepezil-treated patients with moderate Alzheimer's disease; conditions: add-on to donepezil; cited from earlier work
# [4] = tested on: donepezil-treated patients with moderate Alzheimer's disease; conditions: add-on to donepezil 10 mg per day, all patients; cited from earlier work
smiles,measurement,setting,value
"Fc1ccc2c(CCNCc3cccc(OCC(F)(F)C(F)F)c3)c[nH]c2c1 [idalopirdine, N-(2-(6-fluoro-1H-indol-3-yl)ethyl)-3-(2,2,3,3-tetrafluoropropoxy)-benzylamine]",Estimated change in effect on ADL at week 24 per unit increase in NPI apathy item score (Estimate),"[1]; ADCS-ADL score, positive = improvement, add-on to donepezil",0.92
same,Effect on ADL at week 24 in patients without apathy (Estimate),"[1]; ADCS-ADL, NPI apathy score 0, add-on to donepezil",0.39
same,Effect on ADL at week 24 in patients with apathy (Estimate),"[1]; ADCS-ADL, NPI apathy score 1 or higher, add-on to donepezil",2.89
same,Estimated change in effect on cognition at week 24 per unit increase in NPI apathy item score (Estimate),"[2]; ADAS-Cog score, negative = less decline, add-on to donepezil",−0.64
same,Effect on cognition at week 24 in patients without apathy (Estimate),"[2]; ADAS-Cog, NPI apathy score 0, add-on to donepezil",−0.81
same,Effect on cognition at week 24 in patients with apathy (Estimate),"[2]; ADAS-Cog, NPI apathy score 1 or higher, add-on to donepezil",−3.8
same,Ki,h5-HT2A,0.083 µM
same,Ki,h5-HT1E,> 4.6 µM
same,Ki,h5-HT1F,2.4 µM
same,Ki,h5-HT1A,2.3 µM
same,Ki,h5-HT2B,> 4.1 µM
same,Ki,h5-HT1D,2.6 µM
same,Ki,h5-HT7,> 10 µM
same,Ki,h5-HT1B,> 10 µM
same,Effects on pre-specified secondary efficacy endpoints at week 24,[3],None of the effects of idalopirdine on the pre-specified secondary endpoints were statistically significant
same,Change from baseline in the ADAS-cog at week 24 (primary endpoint) versus placebo,[4],significantly better with idalopirdine than with placebo

# Reference: patent US10864191B2, “5-HT6 receptor antagonists for use in the treatment of Alzheimer's disease with apathy as comorbidity” (H. Lundbeck A/S, priority 2016, dated 2020)
